In PMC11083148, “Structure–Activity Relationship Studies on Highly Functionalized Pyrazole Hydrazones and Amides as Antiproliferative and Antioxidant Agents” (International Journal of Molecular Sciences, 2024):

Assays:
washed platelets [1] = experiment: ROS assay in platelets (DCFH-DA, thrombin-stimulated); format: cell-based, human; conditions: Homo sapiens, Platelet, 0.1 U/mL thrombin, mean ± SD, read-out: IC50 ROS production inhibition
Method: (§1) The antioxidant properties of acylhydrazones 10–13 and pyrazolyl amides 14–22 were tested by evaluating their inhibition of platelet aggregation and ROS production (Figure 3, Table S1). In fact, human platelets could represent a fast and low-cost biological model to screen compounds as anticancer, anti-inflammatory, and antiaggregating agents. Moreover, ROS production inhibition, related to human platelet aggregation, could provide a good indication of the anti-inflammatory and antioxidant properties of the newly synthesized compounds [47, 50, 51, 52]. N-acetylcysteine (NAC) and acetyl salicylic acid (ASA) were used as reference drugs for antioxidant and antiaggregant activities, respectively.
(§2) Freshly drawn venous blood from healthy volunteers from “Centro Trasfusionale” (IRCCS Policlinico San Martino, Genoa, Italy) was collected into a 130 mM aqueous trisodium citrate anticoagulant solution (9:1). The donors claimed to not have taken drugs known to interfere with platelet function during the two weeks prior to blood collection and gave their informed consent. Whole blood was centrifuged at 100× g for 20 min to afford platelet-rich plasma that was then spun at 1100× g for 15 min. The obtained pellet was washed once with a pH 5.2 ACD solution (75 mM trisodium citrate, 42 mM citric acid, and 136 mM glucose), centrifuged at 1100× g for 15 min, and then re-suspended in pH 7.4 Hepes buffer (145 mM NaCl, 5 mM KCl, 1 mM MgSO4, 10 mM glucose, and 10 mM HEPES).
2′,7′-Dichlorofluorescein diacetate (DCFH-DA) and thrombin were purchased from Sigma-Aldrich/Merck Millipore. DMSO solutions of 10–22 were diluted in saline immediately before each experiment. ROS production was quantified by DCFH-DA, a ROS-sensitive probe that yields, upon oxidation, the fluorescent adduct DCF that is trapped inside the cells. Briefly, washed platelets (1.0 × 10^8/mL), pre-incubated with saline solutions of 10–22 for 15 min at 37 °C, were stimulated by 0.1 U/mL thrombin. Incubation was stopped by cooling samples in an ice bath, and then samples were immediately analyzed in a Merck Millipore Bioscience Guava easyCyte flow cytometer (Merk Millipore, Burlington, MA, USA). The reported IC50 values represent the molar concentration of the compounds able to inhibit 50% of the maximal aggregation induced by the agonist and are calculated as the percentage inhibition of the maximal aggregation measured in the presence of the agent compared with the measure in a control sample containing saline, carried out under the same conditions. The IC50 values were extrapolated from nonlinear regression analysis of concentration–response curves (three points) using MS Excel software (Microsoft 365 suite). Each IC50 value is the mean of six independent experiments.

washed platelets [2] = experiment: Platelet aggregation (thrombin-induced, Born's method); format: cell-based; conditions: Homo sapiens, 0.1 U/mL thrombin, mean ± SD, read-out: IC50 Aggregation inhibition
Method: as §1, §2
Thrombin was purchased from Sigma-Aldrich/Merck Millipore. A DMSO solution of compounds 10–22 was diluted in saline immediately before each experiment and added to the washed platelets (3.0 × 10^8/mL) at 37 °C. After 3 min, 0.1 U/mL thrombin was added, and platelet aggregation was quantified according to Born’s method using a Bio-Data Aggregometer (Bio-Data Corporation, Horsham, PA, USA). The IC50 values were calculated as detailed above.

SK-BR3 = experiment: MTT assay, antiproliferative activity; format: cell-based; conditions: Homo sapiens, SK-BR-3, 48h
Method: (§3) Pyrazole acylhydrazones 10–13 and amides 14–22 were tested by MTT assay to evaluate their antiproliferative and cytotoxicity properties against a panel of eight tumor cell lines and normal fibroblasts.
(§4) All reagents were purchased from EuroClone, Milan, Italy). The following cell lines were used for MTT assays: SKOV-3 (ovarian adenocarcinoma, ATCC, Manassas, VA, USA); MCF-7 (breast adenocarcinoma, Biologic Bank and Cell Factory, IRCCS Policlinico San Martino, Genoa, Italy); Hep-G2 (hepatocellular carcinoma, ATCC, Manassas, VA, USA); SK-MEL28 (skin melanoma, Biologic Bank and Cell Factory, IRCCS Policlinico San Martino, Genoa, Italy), GM-6114 (embryonic human fibroblast, ATCC, Manassas, VA, USA); MDA-MB231 (breast adenocarcinoma, Biologic Bank and Cell Factory, IRCCS Policlinico San Martino, Genoa, Italy); HeLa (cervical adenocarcinoma, Biologic Bank and Cell Factory, IRCCS Policlinico San Martino, Genoa, Italy); SK-BR3 (breast andenocarcinoma, Biologic Bank and Cell Factory, IRCCS Policlinico San Martino, Genoa, Italy); A549 (lung carcinoma, Biologic Bank and Cell Factory, IRCCS Policlinico San Martino, Genoa, Italy); HUVEC (Human Umbilical Vein Endothelial Cells, ATCC, Manassas, VA, USA). All cell lines were grown in their medium with 10% FBS, 2 mM Glutamine, and 1% penstrep and incubated at 37 °C in 5% CO2 in a humidified environment. The cell lines were plated in 96-well plates at an adequate number to reach 80–90% confluence at the end of the assay. 16 h after cell plating, a 10 mM DMSO stock solution of the compounds was diluted in growth medium and added at a final working concentration of 10 μM. After 48h of incubation, a 2 mg/mL PBS solution of MTT (3-(4,5-dimethyl-2-thiazolyl)-2,5-diphenyl-2H-tetrazolium bromide) was added (30 μL/well). After 4h, the supernatant was removed, and the Formazan precipitates were dissolved in DMSO (100 μL/well). The 96-well plates were incubated for 20 min, and absorbance was measured at 570 nm using a plate reader. The results are expressed as a percentage ratio over control samples (100%) in which the cells were incubated with the same amount of DMSO but without compounds. Each value is the mean of three independent experiments run in six replicates.

MDA-MB231 = experiment: MTT assay, antiproliferative activity; format: cell-based; conditions: Homo sapiens, MDA-MB-231, 48h
Method: as §3, §4

Hep-G2 = experiment: MTT assay, antiproliferative activity; format: cell-based; conditions: Homo sapiens, HepG2, 48h
Method: as §3, §4

A549 = experiment: MTT assay, antiproliferative activity; format: cell-based; conditions: Homo sapiens, 48h, read-out: Mean Growth Percentage
Method: as §3, §4

GM-6114 = experiment: MTT assay, cytotoxicity on normal fibroblasts; format: cell-based; conditions: human, 48 h, 10 µM
HeLa = experiment: MTT assay, antiproliferative activity; format: cell-based; conditions: Homo sapiens, 10 µM, 48h, read-out: Mean Growth Percentage
Method: as §3, §4
(§5) Each IC50 value is the mean of three independent experiments run in duplicate.

SKOV3 = experiment: MTT assay, antiproliferative activity; format: cell-based; conditions: Homo sapiens, SK-OV-3, 10 µM, 48h
Method: as §3, §4, §5

SKMEL28 = experiment: MTT assay, antiproliferative activity; format: cell-based; conditions: Homo sapiens, SK-MEL-28, 10 µM, 48h
Method: as §3, §4, §5

MCF7 = experiment: MTT assay, antiproliferative activity; format: cell-based; conditions: Homo sapiens, 10 µM, 48h
Method: as §3, §4, §5

Compound | IC50 (washed platelets [1]) [µM] | IC50 (washed platelets [2]) [µM] | Mean growth percentage at 10 µM (SK-BR3) [%] | Mean growth percentage at 10 µM (MDA-MB231) [%] | Mean growth percentage at 10 µM (Hep-G2) [%] | activity at 10 µM (A549) [%] | Mean Growth Percentage (GM-6114) [%] | melting point [°C] | activity at 10 µM (HeLa) [%] | Mean growth percentage at 10 µM (SKOV3) [%] | Mean growth percentage at 10 µM (SKMEL28) [%] | mean growth percentage (cell growth remaining vs control) at 10 µM (MCF7) [%]
COc1ccc(/C=N/NC(=O)c2c(N)n[nH]c2Nc2ccccc2)cc1 [10a, (E)-3-amino-N′-(4-methoxybenzylidene)-5-(phenylamino)-1H-pyrazole-4-carbohydrazide] | 111 ± 9 | 204 ± 12 | 95.5 | 99.1 | 115 | 103 | 110.40 | 227 to 232 | 98.4 | 104 | 86.7 | 95.1
COc1ccc(/C=N/NC(=O)c2c(Nc3ccccc3)nn(C)c2N)cc1OC [12b, (E)-5-amino-N′-(3,4-dimethoxybenzylidene)-1-methyl-3-(phenylamino)-1H-pyrazole-4-carbohydrazide] | 106 ± 9 | 187 ± 16 | 94.2 | 91.7 | 92.7 | 95.3 | 99.78 | 104 to 106 | 92.8 | 98.6 | 73.3 | 101
COc1ccc(/C=N/NC(=O)c2c(Nc3ccccc3)nn(CC(O)c3ccccc3)c2N)cc1 (centres unmarked) [13a, (E)-5-amino-1-(2-hydroxy-2-phenylethyl)-N′-(4-methoxybenzylidene)-3-(phenylamino)-1H-pyrazole-4-carbohydrazide] | 213 ± 17 | 883 ± 39 | 91.8 | 96.4 | 85.9 | 94.5 | 99.43 |  | 83.7 | 93.8 | 81.8 | 81
COc1ccc(/C=N/NC(=O)c2c(Nc3ccccc3)nn(CC(O)c3ccccc3)c2N)cc1OC (centres unmarked) [13b, (E)-5-amino-N′-(3,4-dimethoxybenzylidene)-1-(2-hydroxy-2-phenylethyl)-3-(phenylamino)-1H-pyrazole-4-carbohydrazide] | 433 ± 32 | 909 ± 87 | 92.2 | 92.1 | 106 | 104 | 106.86 | 158 to 159 | 98.8 | 114 | 95.7 | 101
COc1ccc(/C=N/NC(=O)c2c(Nc3ccccc3)nn(CC(O)c3ccccc3)c2N)cc1Oc1ccccc1 (centres unmarked) [13c, (E)-5-amino-1-(2-hydroxy-2-phenylethyl)-N′-(4-methoxy-3-phenoxybenzylidene)-3-(phenylamino)-1H-pyrazole-4-carbohydrazide] | 209 ± 15 | 313 ± 29 | 87.5 | 104 | 125 | 94.4 | 99.14 | 144 to 145 | 97.9 | 129 | 104 | 99.8
CCOC(=O)c1c(NC(=O)c2ccc(OC)cc2)n[nH]c1Nc1ccccc1 [compound 15, Ethyl 3-(4-methoxybenzamido)-5-(phenylamino)-1H-pyrazole-4-carboxylate] | 323 ± 14 | 250 ± 19 | 99.8 | 130 | 85.5 | 67.9 | 68.40 | 155 to 157 | 105 | 88.4 | 71.7 | 65.9
CCOC(=O)c1c(NC(=O)c2ccc(OC)c(OC)c2)n[nH]c1Nc1ccccc1 [compound 16, Ethyl 3-(3,4-dimethoxybenzamido)-5-(phenylamino)-1H-pyrazole-4-carboxylate] | 310 ± 24 | 292 ± 28 | 82.5 | 96 | 49.1 | 52.6 | 53.68 | 143 to 145 | 57.6 | 66.9 | 54 | 62.4
